For 23 compounds, inhibition and IC50 results are on record in ChEMBL document CHEMBL1159056, “Antitumor agents. 271: total synthesis and evaluation of brazilein and analogs as anti-inflammatory and cytotoxic agents” (Bioorg Med Chem Lett, 2010).

A short description of experiment [1]: Antiinflammatory activity in human neutrophils assessed as inhibition of fMLP/cytochalasin B-induced superoxide anion generation at 10 ug/mL. In kind it is functional. The following applies: Neutrophil.
Experiment [2] can be described thus: Antiinflammatory activity in human neutrophils assessed as inhibition of fMLP/cytochalasin B-induced elastase release. In kind it is functional, cell-based. The following applies: Neutrophil.
Experiment [3] deals with DU-145. Kind of experiment: Cytotoxicity against human DU145 cells. Format: functional, cell-based.
The subject of experiment [4] is KB. Kind of experiment: Cytotoxicity against human KB cells. Format: functional, cell-based.
The nature of experiment [5]: Antiinflammatory activity in human neutrophils assessed as inhibition of fMLP/cytochalasin B-induced superoxide anion generation. Format: functional, cell-based. The settings on record: Neutrophil.
A short description of experiment [6]: Cytotoxicity against human KBVIN cells. Format: functional, cell-based.
The test system of experiment [7] is A549. Nature of the experiment: Cytotoxicity against human A549 cells. In kind it is functional, cell-based.
Experiment [8] in a line: Antiinflammatory activity in human neutrophils assessed as inhibition of fMLP/cytochalasin B-induced elastase release at 10 ug/mL. In kind it is functional. The following applies: Neutrophil.
Experiment [9] concerns MCF7. Nature of the experiment: Cytotoxicity against human MCF7 cells. Format: functional, cell-based.
Experiment [10] has as its system Ca9-22. Kind of experiment: Cytotoxicity against human Ca9-22 cells. In kind it is functional, cell-based.
The nature of experiment [11]: Cytotoxicity against human Hep3B cells. In kind it is functional, cell-based, Hep 3B2.
Experiment [12] deals with HepG2. Kind of experiment: Cytotoxicity against human HepG2 cells. In kind it is functional, cell-based.
The test system of experiment [13] is MDA-MB-231. Kind of experiment: Cytotoxicity against human MDA-MB-231 cells. In kind it is functional, cell-based.

The term inhibition denotes the drop in the measured response relative to a control, in per cent. The term IC50 denotes the concentration at which inhibition is half-maximal.

≈ marks a conversion by molar mass, not a printed value.

On to `O=C1C=C2CC3(OC(=O)c4ccccc4)COc4cc(OC(=O)c5ccccc5)ccc4C3=C2C=C1OC(=O)c1ccccc1` (stereo not given), for which the inhibition at 10 µg/mL in [1] was determined as 14.1%. Further, the IC50 in [2] stood at 13.2 µM.

Take `COC1=CC2=C3c4ccc(OC)cc4OCC3(OC)CC2=CC1=O` (stereo not given): the IC50 in [3] is 17.5 µM; in experiment [4], 15.2 µM; in [5] it was 4.65 µM; in [2] it was 13.6 µM; in experiment [6], 16.9 µM; in [7], greater than 20 µM.

Regarding `COc1ccc2c(c1)OCC1(O)Cc3cc(OC)c(OC)cc3C21` (stereo not given), the IC50 in experiment [3] was 13.8 µM; in [4] it was 10.5 µM; in experiment [5], 4.52 µM; in [6], 7.6 µM; in experiment [7], greater than 20 µM. Moreover, the inhibition at 10 µg/mL in experiment [8] was 35.8%.

Regarding `CCC(=O)OC1=CC2=C3c4ccc(OC(=O)CC)cc4OCC3(O)CC2=CC1=O` (stereo not given), the IC50 in [3] turned out to be 7.1 µM; in experiment [4], 7.7 µM; in [5], 1.65 µM; in experiment [2], 3.28 µM; in experiment [7], 7.8 µM.

Take `CCN(CC)C(=O)OC1=CC2=C3c4ccc(OC(=O)N(CC)CC)cc4OCC3(O)CC2=CC1=O` (stereo not given): the inhibition at 10 µg/mL in experiment [1] was -7%. Also, the IC50 in experiment [2] came to 15.5 µM.

On to `COc1ccc2c(c1)OC/C(=C\c1ccc(OC)c(OC)c1)C2=O`, for which the IC50 in experiment [3] was greater than 20 µM; in experiment [4], greater than 20 µM; in [6], 18.3 µM; in experiment [7], greater than 20 µM.

With `COc1ccc2c(c1)OCC1(OC1c1ccc(OC)c(OC)c1)C2=O` (stereo not given), the IC50 in experiment [3] is 10.6 µM; in experiment [4], 9.8 µM; in experiment [5], 1.9 µM; in experiment [6] it was 6.4 µM; in [7], greater than 20 µM. The inhibition at 10 µg/mL in experiment [8] came to 43.7%.

As for `O=C1C=C2CC3(O)COc4cc(OCc5ccccc5)ccc4C3=C2C=C1OCc1ccccc1` (stereo not given), in [1], the inhibition at 10 µg/mL amounted to 33.4%. Also, the IC50 in [2] stood at 8.76 µM.

`COC1=CC2=C3c4ccc(OC)cc4OCC3(O)CC2=CC1=O` (stereo not given): the inhibition at 10 µg/mL in experiment [1] was found to be 18.6%; in [8] it was 26.8%.

Regarding `CCOC1=CC2=C3c4ccc(OCC)cc4OCC3(O)CC2=CC1=O` (stereo not given), the IC50 in [3] was found to be 11 µM; in experiment [4] it was 11.3 µM; in experiment [5], 4.35 µM; in experiment [2], 8.37 µM; in experiment [6], 16.5 µM; in experiment [7] it was 15.3 µM.

For `CN(C)C(=O)OC1=CC2=C3c4ccc(OC(=O)N(C)C)cc4OCC3(O)CC2=CC1=O` (stereo not given), the inhibition at 10 µg/mL in experiment [1] is 16.4%; in experiment [8] it was 11.4%.

For the compound `CC(C)=CCOC1=CC2=C3c4ccc(OCC=C(C)C)cc4OCC3(O)CC2=CC1=O` (stereo not given), the IC50 in experiment [5] was 19.7 µM; in experiment [2], 10.1 µM.

Consider `C=CCOC1=CC2=C3c4ccc(OCC=C)cc4OCC3(OCC=C)CC2=CC1=O` (stereo not given), for which the IC50 in experiment [5] was 16.2 µM; in experiment [2], 11.8 µM.

On to `CCOC1=CC2=C3c4ccc(OCC)cc4OCC3(OCC)CC2=CC1=O` (stereo not given), for which the IC50 in [3] was 18.1 µM; in [4], 18.9 µM; in experiment [5], 23.9 µM; in experiment [6], 17.9 µM; in experiment [7] it was greater than 20 µM. The inhibition at 10 µg/mL in [8] was determined as 35.5%.

`C=CCOC1=CC2=C3c4ccc(OCC=C)cc4OCC3(O)CC2=CC1=O` (stereo not given): the IC50 was 9.1 µM in experiment [3]; 5.4 µM in [4]; 19.7 µM in experiment [5]; 16.5 µM in [2]; 9.4 µM in [7].

`CC(=O)OC1=CC2=C3c4ccc(OC(C)=O)cc4OCC3(O)CC2=CC1=O` (stereo not given): the IC50 in experiment [3] was found to be 8.2 µM; in experiment [4], 10 µM; in experiment [5] it was 18.7 µM; in experiment [7], 8.1 µM. For the same compound, the inhibition at 10 µg/mL in experiment [8] was found to be 40.9%.

As to `CCC(=O)OC1=CC2=C3c4ccc(OC(=O)CC)cc4OCC3(OC(=O)CC)CC2=CC1=O` (stereo not given), the IC50 was 11 µM in experiment [3]; 6.6 µM in [4]; 1.2 µM in experiment [5]; 1.9 µM in experiment [2]; 11.3 µM in experiment [6]; 13.5 µM in experiment [7].

Take `COc1ccc2c(c1)OCC(O)(Cc1ccc(OC)c(OC)c1)C2O` (stereo not given): the IC50 is greater than 20 µM in experiment [3]; greater than 20 µM in experiment [4]; 8.38 µM in experiment [5]; 10.2 µM in [2]; greater than 20 µM in [6]; greater than 20 µM in [7].

For `O=C1C=C2CC3(O)COc4cc(O)ccc4C3=C2C=C1O` (stereo not given) [BRAZILEIN], the IC50 came out at 3.96 mg/L (≈ 13.9 µM) in [9]; 8.63 mg/L (≈ 30.4 µM) in experiment [10]; 4 µM in experiment [5]; 14.2 µM in experiment [2]; 3.42 mg/L (≈ 12 µM) in experiment [11]; 3.15 mg/L (≈ 11.1 µM) in experiment [12]. For the same compound, the figures for the IC50 in experiment [7] and in experiment [13] were 9.68 mg/L and 2.36 mg/L (≈ 8.3 µM), respectively.

On to `Oc1ccc2c(c1)OC[C@]1(O)Cc3cc(O)c(O)cc3[C@H]21` [BRAZILIN], for which the IC50 stood at 6.29 mg/L (≈ 22 µM) in experiment [9]; 9.78 mg/L (≈ 34.2 µM) in [10]; 4.6 µM in experiment [5]; 16.7 µM in experiment [2]; 4.54 mg/L (≈ 15.9 µM) in [11]; 3.47 mg/L (≈ 12.1 µM) in experiment [12]. The half-inhibitory concentration (IC50) in [7] stood at 15.6 mg/L; in experiment [13], 3.09 mg/L (≈ 10.8 µM).

Consider `c1ccc2c(c1)[I+]c1ccccc1-2` [DIPHENYLENEIODONIUM], for which the IC50 in experiment [5] was 0.7 µM.

Regarding `COc1cccc2c1C(=O)c1c(O)c3c(c(O)c1C2=O)C[C@@](O)(C(=O)CO)C[C@@H]3O[C@H]1C[C@H](N)[C@H](O)[C@H](C)O1` [DOXORUBICIN], the IC50 was 0.42 mg/L (≈ 0.773 µM) in experiment [9]; 0.56 mg/L (≈ 1.03 µM) in experiment [11]; 0.34 mg/L (≈ 0.626 µM) in experiment [12]; 0.32 mg/L in [7]; 1.05 mg/L (≈ 1.93 µM) in experiment [13].

Regarding `CC(=O)O[C@H]1C(=O)[C@@]2(C)[C@H]([C@H](OC(=O)c3ccccc3)[C@]3(O)C[C@H](OC(=O)[C@H](O)[C@@H](NC(=O)c4ccccc4)c4ccccc4)C(C)=C1C3(C)C)[C@]1(OC(C)=O)CO[C@@H]1C[C@@H]2O` [PACLITAXEL], the IC50 in experiment [4] was found to be 0.00155 µM; in experiment [6], 0.00109 µM; in experiment [7], 0.00193 µM.
